According to article PMC3897205 (Bioorganic & medicinal chemistry letters, 2012):

Assays:
hM1 [1] = biological target: T1, hM1 (Homo sapiens, UniProt P11229); type: cell-based; details: for hM1 antagonist activity in words: SAR discussion of Table 1 analogs; for change in hM1 antagonist potency relative to a comparator compound: fold change in words
T1 sequence (P11229 1-460): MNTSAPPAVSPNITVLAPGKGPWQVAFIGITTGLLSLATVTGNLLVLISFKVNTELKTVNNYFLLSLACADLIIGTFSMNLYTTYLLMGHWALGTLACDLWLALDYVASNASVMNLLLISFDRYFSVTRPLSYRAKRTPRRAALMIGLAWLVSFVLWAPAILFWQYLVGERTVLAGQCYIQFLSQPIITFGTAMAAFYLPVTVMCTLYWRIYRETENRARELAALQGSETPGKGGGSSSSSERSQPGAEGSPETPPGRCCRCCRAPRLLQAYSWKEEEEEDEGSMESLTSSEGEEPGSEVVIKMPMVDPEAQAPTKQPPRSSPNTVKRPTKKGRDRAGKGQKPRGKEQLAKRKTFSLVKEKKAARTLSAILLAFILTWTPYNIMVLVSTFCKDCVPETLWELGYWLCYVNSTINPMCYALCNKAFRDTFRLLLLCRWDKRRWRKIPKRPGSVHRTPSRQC

hM1 [2] = biological target: T1, hM1; assay: [3H]NMS radioligand displacement at hM1 under equilibrium conditions; type: binding
M1 = biological target: T2, M1 (Homo sapiens, UniProt P11229); assay: Schild analysis, calcium mobilization in M1-expressing CHO cells; type: cell-based; details: for Schild regression slope: antagonism of ACh, mean ± S.E.M. of three experiments in triplicate; for mode of antagonism of M1 response to ACh: calcium mobilization assay
T2 sequence (P11229 1-460): T1 sequence (P11229 1-460)

| Structure (SMILES) | hM1 antagonist activity in words (hM1 [1]) | change in hM1 antagonist potency relative to a comparator compound (hM1 [1]) | other results |
| --- | --- | --- | --- |
| O=C(C(Cc1ccccc1)c1ccccc1)N1CC[C@H]2CCCN2CC1 (some centres unmarked) [Compound 5y] | retained moderate potency |  |  |
| CCN1CCN(C(=O)C(Cc2ccccc2)c2ccccc2)CC1 (centres unmarked) [Compound 5a] |  | sixfold drop in potency |  |
| CN1CCCN(C(=O)C(Cc2ccccc2)c2ccccc2)CC1 (centres unmarked) [Compound 5u] |  | only a twofold decrease in potency |  |
| CC(C)CN1CCN(C(=O)C(Cc2ccccc2)c2ccccc2)CC1 (centres unmarked) [Compound 5c] | nearly abolished antagonist activity |  |  |
| O=C(C(Cc1ccccc1)c1ccccc1)N1CCCNCC1 (centres unmarked) [Compound 5z] | nearly complete loss of activity |  |  |
| COCCN1CCN(C(=O)C(Cc2ccccc2)c2ccccc2)CC1 (centres unmarked) [Compound 5r] | significant drop in potency |  |  |
| O=C(C(Cc1ccccc1)c1ccccc1)N1CCN(c2ccncc2)CC1 (centres unmarked) [Compound 5s] | minimal antagonist activity |  |  |
| CN1CCN(C(=O)[C@@](F)(Cc2ccccc2)c2ccccc2)CC1 (single isomer, unassigned) [Compound 8f] |  |  | selectivity for hM1 (hM1 [1]; against hM1-5, calcium mobilization assay): modest selectivity for hM1; displacement of radiolabeled NMS (hM1 [2]): completely displace radiolabeled NMS; Schild regression slope (M1): 1.07 ± 0.02; mode of antagonism of M1 response to ACh (M1): competitively antagonizes M1 response to ACh in a concentration-dependent manner |
| CN(C)CCNC(=O)C(Cc1ccccc1)c1ccccc1 (centres unmarked) [Compound 5m] | large losses in potency |  |  |
| C[N+]1(C)CCN(C(=O)C(Cc2ccccc2)c2ccccc2)CC1 (centres unmarked) [Compound 5h] | only modest activity |  |  |
| CCN1CCN(C(=O)C(Cc2ccccc2)c2ccccc2)CC1(C)C (centres unmarked) [Compound 5g] |  | increase potency roughly sixfold |  |
| CN1CCN(C(=O)[C@H](Cc2ccccc2)c2ccccc2)CC1 (single isomer, unassigned) [Compound 6] | moderate improvement in potency |  | displacement of radiolabeled NMS (hM1 [2]): completely displace radiolabeled NMS; Schild regression slope (M1): 0.97 ± 0.02; mode of antagonism of M1 response to ACh (M1): competitively antagonizes M1 response to ACh in a concentration-dependent manner |
| O=C(C(Cc1ccccc1)c1ccccc1)N1CCN(CC(F)(F)F)CC1 (centres unmarked) [Compound 5t] | complete loss of activity |  |  |
| CCN1CCCN(C(=O)C(Cc2ccccc2)c2ccccc2)CC1 (centres unmarked) [Compound 5v] |  | roughly equipotent with 4 |  |
| CN1CCN(C(=O)C(Cc2ccccc2)c2ccccc2)CC1 (centres unmarked) [Compound 4] |  | roughly fourfold improvement in antagonist potency |  |
| CC(C)N1CCCN(C(=O)C(Cc2ccccc2)c2ccccc2)CC1 (centres unmarked) [Compound 5w] | retained moderate potency |  |  |
| O=C(C(Cc1ccccc1)c1ccccc1)N1CCNCC1 (centres unmarked) [Compound 5d] | loss of activity |  |  |
| CN(C)CCN(C)C(=O)C(Cc1ccccc1)c1ccccc1 (centres unmarked) [Compound 5n] | large losses in potency |  |  |
| CCN1CCN(C(=O)C(Cc2ccccc2)c2ccccc2)CC1C (centres unmarked) [Compound 5f] |  | increase potency roughly sixfold |  |
| CC(C)N1CCN(C(=O)C(Cc2ccccc2)c2ccccc2)CC1 (centres unmarked) [Compound 5b] |  | only a minor potency decrease |  |
